From patent US8563562B2, “Compounds having antiviral properties” (priority 2008, dated 2013) come the findings set out here.

Where only a bound is given, the exact number is not on record here.

Type in all cases: cell-based
Assay [1] relates to HIV variant T661/S153Y integrase. Kind of assay: PhenoScreen (Phenosense) assay, single-round luciferase pseudotyped HIV. The following applies: Human immunodeficiency virus 1, read-out: Activity, Phenosense assay, T661 S153Y. The source says: (§1) Monogram Bioscience' PhenoScreen assay allows the evaluation of integrase inhibitors for activity against a variety of HIV variants. The assay uses virus generated from 2 DNA constructs; one containing the HIV LTR, gag and pol regions, as well as a luciferase reporter gene in place of the viral envelope genes, and a second DNA construct containing the amphotrophic murine leukemia virus (A-MLV) envelope gene required to pseudotype virions and render them capable of entry into a target cell. Viruses generated using these constructs by transfection into a producer cell line such as 293T are capable of one-round of infection only. Successful integration events are directly proportional to the levels of luciferase expression 48 h after infection.
(§2) The viral variants chosen by the present inventors to screen integration inhibitors consist of mutations within the viral integrase enzyme known to confer resistance to a number of known integration inhibitors published in the literature. In particular, the viral variants containing the Q148H/G140S double mutation in integrase, and the N155H/E92Q double mutation in integrase, represent two of the more common viruses identified to arise in patients that are failing treatment with Isentress (Raltegravir, MK-0518).

Assay [2] concerns HIV variant Y143R integrase. The description is as above. Conditions: for EC50: Human immunodeficiency virus 1, read-out: Activity, Phenosense assay, Y143R.
Description: as §1, §2

Another assay deals with HIV WT integrase. Described as above. Conditions: Human immunodeficiency virus 1, read-out: Activity, Phenosense assay, WT.
Description: as §1, §2

Assay [3] concerns HIV variant E92Q/N155H integrase. The description is as above. Conditions: for EC50: Human immunodeficiency virus 1, read-out: Activity, Phenosense assay, E92Q/N155H.
Description: as §1, §2

In assay [4] the test system is HIV variant G140S/Q148H integrase. The assay is described as above. The following applies: Human immunodeficiency virus 1, read-out: Activity, Phenosense assay, G140S Q148H.
Description: as §1, §2

Assay [5] concerns HIV variant T125K/F121Y integrase. The description is as above. Conditions: for EC50: Human immunodeficiency virus 1, read-out: Activity, Phenosense assay, T125K F121Y.
Description: as §1, §2

The test system of assay [6] is HIV-1 reporter virus, Q148K/G140A/E138A (QKGAEA) integrase. Kind of assay: Luciferase reporter virus infectivity assay in 293T cells. Conditions: Human immunodeficiency virus 1, HEK-293T, 48 h, read-out: Luciferase assay EC50, QKGAEA. The source says: (§3) Infectivity assays using reporter viruses derived from lentiviral vectors capable of a single round of infection were used to determine the activity (EC50) of compounds. The DNA used to generate viruses for infection was the full-length HIV-1 genome which had been envelope-deleted. In addition, a reporter gene (the firefly luciferase gene from Photinus pyralis) was cloned into the nef region of the HIV backbone for ease of assay readout. […]. Culture supernatants containing VSV-G pseudotyped virions were harvested 64 h post transfection, clarified by centrifugation to remove cell debris, and frozen at −70° C. until use.
(§4) HIV integrase was mutated within a shuttle vector (pGEM) containing the majority of the HIV-1 gag and pol sequence using site-directed mutagenesis to generate sequences that are known to confer resistance to published integrase inhibitors. These include but are not limited to mutations such as Q148H/G140S (in table #QHGS), N155H/E92Q (in table #NHEQ), F121Y/T124K (in table FYTK), Y143R (in table #Y143R) and the triple mutant Q148K/G140A/E138A. (in table#QKGAEA). The mutated integrase coding region within the shuttle vector was sequence verified, and then exchanged for the wild-type (WT) coding sequence in the reporter virus DNA backbone.
(§5) 293T cells were plated out at 12000 cells per well in CellView 96-well cell culture plates (Invitrogen) 16 h prior to compound addition. Compounds were preincubated with cells for 4 h at 37° C. prior to the addition of virus sufficient to generate approximately 10000 Luciferase light units (as measured by the Victor Wallace luminometer) upon assaying using the Bright-Glo™ reagent (Promega) according to the manufacturer's instructions at 48 h post infection.

For assay [7], the system named is HIV-1 reporter virus, Q148H/G140S (QHGS) integrase. The description is as above. The following applies: Human immunodeficiency virus 1, HEK-293T, 48 h, read-out: Luciferase assay EC50, QHGS.
Description: as §3, §4, §5

Assay [8] deals with HIV-1 reporter virus, wild-type (WT) integrase. The assay is described as above. Conditions: Human immunodeficiency virus 1, HEK-293T, 48 h, read-out: Luciferase assay EC50, WT.
Description: as §3, §4, §5

The subject of assay [9] is HIV-1 reporter virus, N155H/E92Q (NHEQ) integrase. Described as above. Conditions: Human immunodeficiency virus 1, HEK-293T, 48 h, read-out: Luciferase assay EC50, NHEQ.
Description: as §3, §4, §5

For assay [10], the system named is HIV-1 reporter virus, Y143R integrase. Described as above. Conditions: Human immunodeficiency virus 1, HEK-293T, 48 h, read-out: Luciferase assay EC50, Y143R.
Description: as §3, §4, §5

For assay [11], the system named is HIV-1 reporter virus, F121Y/T124K (FYTK) integrase. The assay is described as above. Conditions: Human immunodeficiency virus 1, HEK-293T, 48 h, read-out: Luciferase assay EC50, FYTK.
Description: as §3, §4, §5

For the compound `O=C(NCc1ccc(F)cc1)c1nc2c(I)cc(N3CCOCC3)cn2c(=O)c1O` [Comparative example 3, reference compound], the EC50 in assay [1] is 0.001 to 0.1 µM; in assay [2], 0.001 to 0.1 µM; with HIV WT integrase it was 0.001 to 0.1 µM; in assay [3] it was 0.001 to 0.1 µM; in assay [4] it was over 10 µM; in [5], 0.001 to 0.1 µM.

Regarding `O=c1c(O)c(-c2ncc(Cc3ccc(F)cc3)o2)nc2c(I)cc(N3CCOCC3)cn12` [Example 4, 2-[5-(4-fluoro-benzyl)-oxazol-2-yl]-3-hydroxy-9-iodo-7-morpholin-4-yl-pyrido[1,2-a]pyrimidin-4-one], the EC50 is 0.001 to 0.1 µM in assay [1]; 0.001 to 0.1 µM in assay [2]; 0.001 to 0.1 µM in the assay with HIV WT integrase; 0.001 to 0.1 µM in [3]; over 10 µM in [4]; 0.001 to 0.1 µM in [5]. For the same compound, the “improvement in activity over comparative example 3, Y143R” value in assay [2] (footnote a, Y143R mutant) is given as “a 2.5-fold improvement in activity over comparative example 3”. Also, the “improvement in activity over comparative example 3, E92Q/N155H” value in [3] (footnote b, E92Q/N155H mutant) was “b 2-fold improvement in activity over comparative example 3”. Besides, the “improvement in activity over comparative example 3, T125K F121Y” value in assay [5] (footnote a, T125K/F121Y mutant) is on record as “a 2.5-fold improvement in activity over comparative example 3”.

Regarding `O=c1c(O)c(-c2ncc(Cc3ccc(F)cc3)o2)nc2ccc(N3CCOCC3)cn12` [Example 7, 2-[5-(4-fluoro-benzyl)-oxazol-2-yl]-3-hydroxy-7-morpholin-4-yl-pyrido[1,2-a]pyrimidin-4-one], the EC50 fell in the range of 0.001 to 0.1 µM in assay [1]; 0.001 to 0.1 µM in assay [2]; 0.001 to 0.1 µM in the assay with HIV WT integrase; 0.1 to 1 µM in assay [3]; 1 to 10 µM in assay [4]; 0.1 to 1 µM in [5].

With `O=c1c(O)c(-c2ncc(Cc3ccc(F)cc3)s2)nc2ccc(N3CCOCC3)cn12` [Example 41, 2-[5-(4-Fluoro-benzyl)-thiazol-2-yl]-3-hydroxy-7-morpholin-4-yl-pyrido[1,2-a]pyrimidin-4-one], the EC50 is over 1 µM in assay [6]; over 1 µM in [7]; 0.001 to 0.1 µM in [8]; 0.001 to 0.1 µM in assay [9]; 0.001 to 0.1 µM in [1]; 0.001 to 0.1 µM in assay [2]. Also, the EC50 in the assay on HIV WT integrase lay in the range of 0.001 to 0.1 µM; in assay [3] it was 0.1 to 1 µM; in [4], 0.1 to 1 µM; in [5] it was 0.001 to 0.1 µM.

`O=c1c(O)c(-c2ncc(Cc3ccc(Cl)c(Cl)c3)s2)nc2ccc(N3CCOCC3)cn12` [Example 42, 2-[5-(3,4-Dichloro-benzyl)-thiazol-2-yl]-3-hydroxy-7-morpholin-4-yl-pyrido[1,2-a]pyrimidin-4-one]: the EC50 lay in the range of 0.1 to 1 µM in assay [1]; 0.1 to 1 µM in assay [2]; 0.1 to 1 µM in the assay on HIV WT integrase; 0.1 to 1 µM in assay [3]; 1 to 10 µM in [4]; 0.1 to 1 µM in [5].

`O=c1c(O)c(-c2ncc(Cc3ccc(F)cc3)[nH]2)nc2ccc(N3CCOCC3)cn12` [Example 45, 5-(4-Fluoro-benzyl)-2-(3-hydroxy-7-morpholin-4-yl-4-oxo-4H-pyrido[1,2-a]pyrimidin-2-yl)-1H-imidazol-1-ium chloride]: the EC50 in [6] fell in the range of 0.1 to 1 µM; in assay [7], 0.1 to 1 µM; in assay [8] it was 0.001 to 0.1 µM; in [10] it was 0.1 to 1 µM; in [9], 0.1 to 1 µM; in [11] it was 0.1 to 1 µM.

Take `CN1CCN(c2cc(N3CCOCC3)cn3c(=O)c(O)c(-c4ncc(Cc5ccc(F)cc5)s4)nc23)S1(=O)=O` [Example 99, 2-[5-(4-Fluoro-benzyl)-thiazol-2-yl]-3-hydroxy-9-(5-methyl-1,1-dioxo-1l6-[1,2,5]thiadiazolidin-2-yl)-7-morpholin-4-yl-pyrido[1,2-a]pyrimidin-4-one]: the EC50 in assay [6] was in the range of 0.1 to 1 µM; in assay [7] it was 0.001 to 0.1 µM; in [8], 0.001 to 0.1 µM; in [10], 0.001 to 0.1 µM; in assay [9], 0.001 to 0.1 µM; in assay [11], 0.001 to 0.1 µM.

For `CN1CCN(c2cc(N3CCOCC3)cn3c(=O)c(O)c(-c4ncc(Cc5ccc(F)cc5)s4)nc23)C1=O` [Example 101, 2-[5-(4-Fluoro-benzyl)-thiazol-2-yl]-3-hydroxy-9-(3-methyl-2-oxo-imidazolidin-1-yl)-7-morpholin-4-yl-pyrido[1,2-a]pyrimidin-4-one], the EC50 in assay [6] was in the range of 0.1 to 1 µM; in assay [7], 0.001 to 0.1 µM; in [8] it was 0.001 to 0.1 µM; in [10] it was 0.001 to 0.1 µM; in assay [9] it was 0.001 to 0.1 µM; in assay [11] it was 0.001 to 0.1 µM.

On to `O=C1OCCN1c1cc(N2CCOCC2)cn2c(=O)c(O)c(-c3ncc(Cc4ccc(F)cc4)s3)nc12` [Example 103, 2-[5-(4-Fluoro-benzyl)-thiazol-2-yl]-3-hydroxy-7-morpholin-4-yl-9-(2-oxo-oxazolidin-3-yl)-pyrido[1,2-a]pyrimidin-4-one], for which the EC50 in assay [6] was 0.1 to 1 µM; in assay [7], 0.001 to 0.1 µM; in [8], 0.001 to 0.1 µM; in [10], 0.001 to 0.1 µM; in assay [9], 0.001 to 0.1 µM; in assay [11], 0.001 to 0.1 µM.

As for `O=c1c(O)c(-c2ncc(Cc3ccc(F)cc3)s2)nc2c(N3CCCS3(=O)=O)cc(N3CCOCC3)cn12` [Example 105, 9-(1,1-Dioxo-1l6-isothiazolidin-2-yl)-2-[5-(4-fluoro-benzyl)-thiazol-2-yl]-3-hydroxy-7-morpholin-4-yl-pyrido[1,2-a]pyrimidin-4-one], the EC50 in assay [6] was 0.1 to 1 µM; in assay [7], 0.1 to 1 µM; in assay [8] it was 0.001 to 0.1 µM; in assay [10], 0.001 to 0.1 µM; in [9] it was 0.001 to 0.1 µM; in assay [11], 0.001 to 0.1 µM.
